Target: T1, Thiamine-binding periplasmic protein (Escherichia coli (strain K12), UniProt P31550)
T1 sequence (P31550 whole entry): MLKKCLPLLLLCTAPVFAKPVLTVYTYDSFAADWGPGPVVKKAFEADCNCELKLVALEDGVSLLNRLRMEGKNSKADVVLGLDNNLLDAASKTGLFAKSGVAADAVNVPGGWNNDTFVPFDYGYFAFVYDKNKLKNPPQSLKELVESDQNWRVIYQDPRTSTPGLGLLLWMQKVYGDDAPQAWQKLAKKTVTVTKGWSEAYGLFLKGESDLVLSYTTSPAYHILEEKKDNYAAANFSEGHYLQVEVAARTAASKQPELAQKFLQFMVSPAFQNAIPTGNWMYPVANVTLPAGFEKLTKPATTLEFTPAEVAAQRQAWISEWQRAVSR
Experiment: Titration Assay
Method: the kd for ThOH, ThMP and ThDP were determined using titration experiments in which the change in the intrinsic protein fluorescence was monitored as a function of ligand concentration.

SMILES | Kd
Cc1ncc(C[n+]2csc(CCO[P@](=O)(O)OP(=O)(O)O)c2C)c(N)n1 [ThDP] | 7.4 nM
Cc1ncc(C[n+]2csc(CCO)c2C)c(N)n1 [Vitamin B 1] | 3.8 nM

Source: BindingDB's records for doi:10.1021/bi7018282 (Cornell University, 2008)
